Measurements: US20180258428A1, “METHODS AND COMPOSITIONS FOR THE TREATMENT OF A METABOLIC DISORDER” (Children's Hospital Medical Center, priority 2017, published 2018)
Read-outs that look alike come from different tables or passages of the source.

Tests used:
primary hepatocytes [1] = test: Glucose production assay in primary hepatocytes; type: cell-based, mouse; details: primary hepatocytes from L-Ago2 WT and KO mice, 100 or 200 μM
Method: To investigate how Ago2 regulates glucose metabolism, Applicant first examined capacities of hepatic gluconeogenesis in Ago2-deficient primary hepatocytes. […] Applicant additionally asked if Ago2 regulates the fundamental catabolic capacities of hepatocytes. To examine the glycolytic rate, the extracellular acidification rate (ECAR) was determined in primary hepatocytes upon addition of glucose. […] Glycolysis produces pyruvate that is used as an energy source for the citric acid cycle.
Glucose production assay. Mouse primary hepatocytes were cultured in 12-well plates (0.4×10^6 cells per well) in William E supplemented with 10% FBS. Next day, cells were cultured with 1 ml of DMEM (5.5 mM glucose) supplemented with 10% FBS. Post plating for 21 hours, cells were washed twice with PBS and were subjected 3-4 hours to serum starvation with FBS-free DMEM (5.5 mM glucose). After washing twice with PBS, cells were cultured in 0.4 ml of glucose production buffer consisting of glucose-free DMEM (pH 7.4) without phenol red supplemented with 20 mM sodium lactate, 2 mM sodium pyruvate, 2 mM L-glutamine and 15 mM HEPES^62. Cells were incubated at 37° C. for 4.5 hours with or without Bt-cAMP or pCPT-cAMP. Both medium and cells were collected. The glucose concentration was measured with the Autokit Glucose (WAKO) and was normalized by the total protein content.

AMPK [2] = test: AMPK activation in primary hepatocytes with metformin (western blot); type: cell-based, mouse; details: Ago2-deficient primary hepatocytes versus controls, 1 mM metformin
Method: Primary hepatocytes. Hepatocytes were isolated from liver of 12-14 weeks old L-Ago2 WT and 607 L-Ago2 KO mice by a two-step perfusion method as described previously^59 with a slight modification. Briefly, the liver was first perfused with 30 ml of HBSS supplemented with 10 mM HEPES, 0.5 mM EGTA and 5 mM glucose and then digested with 35 mL of Collagenase X 610 (WAKO) at 100 U/mL dissolved in HBSS buffer supplemented with 10 mM HEPES and 5 mM CaCl2. Liver was collected after perfusion and hepatocyte were released and sedimented at 60 G for 2 mM. Hepatocyte suspension was then layered on a 40% percoll solution (GE Healthcare Life Sciences) and centrifuged at 800 G for 10 min. The alive hepatocytes were recovered from the bottom of the tube and seeded on culture plates.
Protein extraction and immunoblot analysis. To prepare protein lysates, cells were washed with cold PBS, followed by lysis in cold mammalian cell lysis buffer [MCLB: 50 mM Tris-HCl (pH 7.4), 150 mM NaCl, 10 mM NaF, 5% glycerol, 1% NP-40, 1% protease and phosphatase inhibitor cocktail]. […]

[3] = for glucose tolerance (GTT): one week; for hepatic glycogen contents (S961-induced glycogenolysis) / serum insulin levels (S961-induced hyperinsulinemia): 2 weeks post S961 with metformin
Method: (§1) Mice. Animal care and experimental procedures were performed according to procedures approved by the animal care committees of our medical center. […] The ALZET osmotic pump were used to deliver 10 nM S961 or vehicle (PBS) in a two-week period. GTTs were performed by intraperitoneal glucose injection (1.5 g/kg) following an overnight food withdrawal for 14 hours. […] Mouse plasma insulin levels were measured using Mouse Ultrasensitive Insulin ELISA kit (ALPCO).

MD-miRNAs = test: Hepatic miRNA and mRNA expression after S961 or S961 plus metformin treatment; type: in vivo, mouse; details: 2 weeks
Excerpt: Expression profiles that assessed the effect of insulin insufficiency on miRNAs in the liver categorized four different classes of miRNAs; (I) dominantly expressed in L-Ago2 WT, (II) induced by S961 in both L-Ago2 WT and KO, (III) suppressed by S961 in both L-Ago2 WT and KO, and (IV) expressed in L-Ago2 KO (FIG. 3d). […] These analyses implicate hepatic Ago2-dependent miRNAs play a role in the disruption of glucose metabolism under the condition of insulin insufficiency.
Quantitative real-time PCR analysis. For mRNA quantification, total RNA was extracted using Trizol reagent (Invitrogen). Total RNA was converted to first strand cDNA using SuperScript® VILO™ cDNA Synthesis Kit (Invitrogen). Quantitative real-time PCR analysis was performed using SYBR Select Master Mix (Applied Biosystems) in a real-time PCR machine (QuantStudio 6 Flex Real-Time PCR system; Thermo Fisher Scientific). To normalize expression data, β-actin mRNA was used as a housekeeping gene. For miRNA quantification, total RNA was extracted using miRNeasy Micro Kit (Qiagen) according to manufacturer's instructions. TaqMan miRNA assays (Life Technologies) were used and real-time PCR were carried out for mature miRNA quantification. Primary miRNAs were quantified using TaqMan […] assays. Sno202 and β-actin were used as internal controls.
High-throughput sequencing of miRNA. […]

[4] = Fasting blood glucose in HFD-fed mice before and after oral metformin; type: in vivo, mouse; details: oral metformin 80 mg/kg/day for 7 days
Method: as §1

primary hepatocytes [5] = test: ATP/ADP ratio assay in primary hepatocytes with metformin; type: cell-based, mouse; details: Ago2-deficient primary hepatocytes, 1 mM metformin
Excerpt: To further examine if Ago2 deficiency accelerates cellular energy consumption associated with protein synthesis, Applicant treated primary hepatocytes with metformin, which is an anti-diabetic drug and inhibits mitochondrial respiratory-chain complex I activity restricting ATP generation^40, and measured ATP/ADP levels. […] To directly investigate the effect of Ago2-deficiency on protein synthesis in hepatocytes, Applicant measured the levels of nascent protein synthesis. […] By restricting energy supply using phenformin and rotenone, both of which inhibit mitochondrial respiratory-chain complex I activity, the levels of nascent protein synthesis in Ago2-deficient hepatocytes were equivalent or still higher compared to those in controls (FIG. 6G).
Primary hepatocytes. Hepatocytes were isolated from liver of 12-14 weeks old L-Ago2 WT and 607 L-Ago2 KO mice by a two-step perfusion method as described previously^59 with a slight modification. […]
ATP/ADP ratio assay. The ATP/ADP ratio in the mouse liver extract or primary hepatocytes was determined using a bioluminescent ATP/ADP Ratio Assay Kit (Abcam) according to the manufacturer's instructions. […]

AMPK [6] = test: AMPK activation in MEFs with cycloheximide (western blot); type: cell-based, mouse; details: 25 μg/ml cycloheximide for 8 hours
Excerpt: Since Ago2 slicer activity uniquely regulates RNA silencing, Applicant then asked if the slicer activity is involved in the regulation of energy consumption and AMPK activation. […] More importantly, Applicant also observed that AMPK activity, assessed by phosphorylation levels of AMPKα and ACC, was higher in Ago2-deficient MEFs under serum starvation condition (FIG. 16A). […] While activated AMPKα is known to suppress mRNA translation^41, levels of nascent protein synthesis in Ago2-deficient MEFs are increased compared to the cells reconstituted with WT Ago2 (FIG. 16B). To investigate if enhanced protein synthesis reasons AMPK activation in Ago2-deficiency, Applicant treated MEFs with cycloheximide (CHX), a protein synthesis inhibitor, and monitored AMPK activation.
Mouse embryonic fibroblasts. Ago2-deficient fibroblasts reconstituted with Ago2 WT or DA mutant that were kindly provided by Dr. Eric Lai^22. Applicant generated Ago2^fl/fl MEFs through the 3T3 protocol and performed an adenovirus-mediated gene transfer for Cre or LacZ expression to obtain Ago2-deficient MEFs^60. MEF cells were cultured in Dulbecco Modified Eagle Medium (DMEM) (Thermo Fisher Scientific: #11965) supplemented with 10% FBS. For western blot analyses of AMPK, MEF cells were plated at a density of 1×10^5 cells per well of 6-well plate for overnight. […]

## CCCC(=O)Nc1ncnc2c1ncn2[C@@H]1O[C@@H]2COP(=O)(O)O[C@H]2[C@H]1OC(=O)CCC [Bt-cAMP, dibutyryl cyclic AMP]
Primary hepatocytes [1]
  glucose production: similarly induced between genotypes

## Nc1ncnc2c1nc(Sc1ccc(Cl)cc1)n2[C@@H]1O[C@@H]2COP(=O)([O-])O[C@H]2[C@H]1O.[Na+] [pCPT-cAMP, 8-(4-Chlorophenylthio)adenosine 3′,5′-cyclic monophosphate]
Primary hepatocytes [1]
  glucose production: similarly induced between genotypes

## CN(C)C(=N)N=C(N)N [metformin]
AMPK [2]
  levels of metformin-induced AMPK activation: significantly higher than that in controls
[3]; L-Ago2 KO mice treated with S961, metformin 150 mg/kg/day via osmotic pumps
  glucose tolerance (GTT): no change in glucose tolerance
[3]; L-Ago2 KO mice
  hepatic glycogen contents (S961-induced glycogenolysis): blunted
  serum insulin levels (S961-induced hyperinsulinemia): blunted
[3]; L-Ago2 WT mice treated with S961, metformin 150 mg/kg/day via osmotic pumps
  glucose tolerance (GTT): improved glucose tolerance
[3]; L-Ago2 WT mice
  hepatic glycogen contents (S961-induced glycogenolysis): alleviated
  serum insulin levels (S961-induced hyperinsulinemia): alleviated S961-induced hyperinsulinemia
MD-miRNAs; Ago2-deficient liver
  expression of MD-miRNAs in liver: did not affect their expression levels
MD-miRNAs; L-Ago2 WT mice
  expression of S961-induced MD-miRNAs in liver: drastic suppression
[4]; L-Ago2 KO mice fed HFD
  fasting blood glucose levels: no change upon metformin treatment
[4]; L-Ago2 WT mice fed HFD
  fasting blood glucose levels: reduced fasting blood glucose levels
Primary hepatocytes [5]
  relative ATP/ADP levels: rapidly decreased

## C[C@@H]1C[C@@H]([C@H](O)CC2CC(=O)NC(=O)C2)C(=O)[C@@H](C)C1 [cycloheximide]
AMPK [6]; Ago2-deficient MEFs
  AMPK activation: more robust
AMPK [6]; WT MEFs
  AMPK activation: reduction of AMPK activation
